Assay results: US12256736B2, “Pyridazine compound and herbicide” (Nippon Soda Co., Ltd., priority 2019, dated 2025)

Assays:
Assay type in all cases: in vivo
Zea mays for feed [1] = assay: Test Example 3: spraying onto shoots, herbicidal index (crop); conditions: sprayed onto shoots (crop, shoot height 20 to 30 cm), three weeks after the treatment
Description: (§1) An emulsifiable concentrate for test was prepared in the same manner as that described in Test Example 1.
(§2) Seeds of each of Zea mays for feed, Alopecurus myosuroides, Lolium multiflorum, Avena sativa, Digitaria ciliaris, Setaria faberi, Abutilon theophrasti, and Amaranthus retroflexus were placed in a surface layer of soil filled in a pot with a size of 150 cm^2 and then lightly covered with soil. Subsequently, the pots were kept in a greenhouse to allow the plants to grow. When each of Alopecurus myosuroides, Lolium multiflorum, Avena sativa, Digitaria ciliaris, Setaria faberi, Abutilon theophrasti, and Amaranthus retroflexus grew to a shoot height ranging from 2 to 4 cm, and Zea mays for feed grew to a shoot height ranging from 20 to 30 cm, the emulsifiable concentrate mentioned above was diluted with water so as to have a specified amount of the active ingredient, and then sprayed onto the shoot parts by means of a small-sized sprayer at an application rate of 250 L of water per hectare.
(§3) Three weeks after the treatment, the weight of the shoot part of the alive plant in the untreated plot and the treated plot with respect to each plant was measured. The herbicidal index was calculated according to the calculation expression described below.
(§4) (4) Calculation Expression for Herbicidal Index Herbicidal index (%)=[(Weight of the shoot part of the alive plant in the untreated plot−Weight of the shoot part of the alive plant in the treated plot)/(Weight of the shoot part of the alive plant in the untreated plot)]×100
(§5) A diluted emulsifiable concentrate of the compound of A-2 was sprayed at a dosage of 250 g or 63 g of the compound per hectare.
(§6) In addition, with respect to the compound (A) described in Patent Document 1, the same application as described above was carried out.

Digitaria ciliaris [2] = assay: Test Example 2: tests of treating shoots, herbicidal index; conditions: 63 g/ha, sprayed onto shoots, four weeks after the treatment
Description: as §1
(§7) Seeds of each of Lolium multiflorum, Digitaria ciliaris, and Zea mays for feed were placed in a surface layer of soil filled in a pot with a size of 150 cm^2 and then lightly covered with soil. Subsequently, the pots were kept in a greenhouse to allow the plants to grow. When each of Lolium multiflorum and Digitaria ciliaris grew to a shoot height ranging from 2 to 4 cm, and Zea mays for feed grew to a shoot height ranging from 20 to 30 cm, the emulsifiable concentrate mentioned above was diluted with water so as to have a specified amount of the active ingredient, and then sprayed onto the shoot parts by means of a small-sized sprayer at an application rate of 250 L of water per hectare.
as §3, with “Four weeks” for “Three weeks”, “each of Lolium multiflorum, Digitaria ciliaris, and Zea mays for feed” for “each plant”
as §4
(§8) A diluted emulsifiable concentrate of the compound of A-2 was sprayed at a dosage of 63 g of the compound per hectare.
as §6

Lolium multiflorum [3] = assay: as above; conditions: 63 g/ha, sprayed onto shoots, four weeks after the treatment
Description: as §1, §7
as §3, with “Four weeks” for “Three weeks”, “each of Lolium multiflorum, Digitaria ciliaris, and Zea mays for feed” for “each plant”
as §4, §8, §6

Zea mays for feed [4] = assay: Test Example 2: tests of treating shoots, herbicidal index (crop); conditions: 63 g/ha, sprayed onto shoots (crop, shoot height 20 to 30 cm), four weeks after the treatment
Description: as §1, §7
as §3, with “Four weeks” for “Three weeks”, “each of Lolium multiflorum, Digitaria ciliaris, and Zea mays for feed” for “each plant”
(4) Calculation Expression for Herbicidal Index Herbicidal index (%)=[(Weight of the shoot part of the alive plant in the untreated plot−Weight of the shoot part of the alive plant in the treated plot)/(Weight of the shoot part of the alive plant in the untreated plot)]×100 […]

Digitaria ciliaris [5] = assay: Test Example 3: spraying onto shoots, herbicidal index; conditions: sprayed onto shoots, three weeks after the treatment
Description: as §1, §2, §3, §4, §5, §6

Lolium multiflorum [6] = assay: as above; conditions: sprayed onto shoots, three weeks after the treatment
Description: as §1, §2, §3, §4, §5, §6

Setaria faberi = assay: as above; conditions: sprayed onto shoots, three weeks after the treatment
Description: as §1, §2, §3, §4, §5, §6

Avena sativa = assay: as above; conditions: sprayed onto shoots, three weeks after the treatment
Description: as §1, §2, §3, §4, §5, §6

Alopecurus myosuroides = assay: as above; conditions: sprayed onto shoots, three weeks after the treatment
Description: as §1, §2, §3, §4, §5, §6

Abutilon theophrasti = assay: as above; conditions: sprayed onto shoots, three weeks after the treatment
Description: as §1, §2, §3, §4, §5, §6

Amaranthus retroflexus = assay: as above; conditions: sprayed onto shoots, three weeks after the treatment
Description: as §1, §2, §3, §4, §5, §6

Row | SMILES | Herbicidal index Zea mays for feed (Zea mays for feed [1]; 63 g ai/ha) [%] | Herbicidal index Zea mays for feed (Zea mays for feed [1]; 250 g ai/ha) [%] | Herbicidal index Digitaria ciliaris (Digitaria ciliaris [2]) [%] | Herbicidal index Lolium multiflorum (Lolium multiflorum [3]) [%] | Herbicidal index Zea mays for feed (Zea mays for feed [4]) [%] | Herbicidal index Digitaria ciliaris (Digitaria ciliaris [5]; 63 g ai/ha) [%] | Herbicidal index Digitaria ciliaris (Digitaria ciliaris [5]; 250 g ai/ha) [%] | Herbicidal index Lolium multiflorum (Lolium multiflorum [6]; 63 g ai/ha) [%] | Herbicidal index Lolium multiflorum (Lolium multiflorum [6]; 250 g ai/ha) [%] | Herbicidal index Setaria faberi (Setaria faberi; 63 g ai/ha) [%] | Herbicidal index Setaria faberi (Setaria faberi; 250 g ai/ha) [%] | Herbicidal index Avena sativa (Avena sativa; 63 g ai/ha) [%] | Herbicidal index Avena sativa (Avena sativa; 250 g ai/ha) [%] | Herbicidal index Alopecurus myosuroides (Alopecurus myosuroides; 63 g ai/ha) [%] | Herbicidal index Alopecurus myosuroides (Alopecurus myosuroides; 250 g ai/ha) [%] | Herbicidal index Abutilon theophrasti (Abutilon theophrasti; 63 g ai/ha) [%] | Herbicidal index Abutilon theophrasti (Abutilon theophrasti; 250 g ai/ha) [%] | Herbicidal index Amaranthus retroflexus (Amaranthus retroflexus; 63 g ai/ha) [%] | Herbicidal index Amaranthus retroflexus (Amaranthus retroflexus; 250 g ai/ha) [%]
1 | Cn1ncc(-c2ccc(C(F)(F)F)cc2S(C)(=O)=O)c(O)c1=O [(A)] | 40 | 90 | 80 | 40 | 50 | 80 | 90 | 40 | 50 | 80 | 100 | 60 | 80 | 50 | 90 | 80 | 90 | 100 | 100
2 | Cn1ncc(-c2ccc(C(F)(F)F)c3c2CCCS3(=O)=O)c(O)c1=O [Compound A-2, 5-(1,1-dioxido-8-(trifluoromethyl)thiochroman-5-yl)-4-hydroxy-2-methylpyridazin-3(2H)-one] | 0 | 20 | 90 | 100 | 0 | 90 | 100 | 100 | 100 | 100 | 100 | 100 | 100 | 80 | 100 | 100 | 100 | 100 | 100
